Experimental data from PubChem BioAssay (NCI).
Values joined by “and” are separate entries in the source; they are usually repeats but may differ in a detail not shown here. Equal values may be shown once.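 The compound was tested at five concentrations on cells cultured in 96-well plates, with a 48-hour exposure period. The concentration for full growth arrest is given as TGI.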

Legend:
Assay in all cases: NCI-60 cell line screen, 48 h
[1] = tested on: 786-0 renal
[2] = tested on: A549 NSCLC
[3] = tested on: DU-145 prostate
[4] = tested on: HCC-2998 colon
[5] = tested on: K-562 leukemia
[6] = tested on: KM12 colon
[7] = tested on: M14 melanoma
[8] = tested on: MDA-MB-231 breast
[9] = tested on: MDA-N
[10] = tested on: OVCAR-3 ovarian
[11] = tested on: PC-3 prostate
[12] = tested on: SF-268 CNS
[13] = tested on: SF-295 CNS
[14] = tested on: SK-MEL-28 melanoma
[15] = tested on: SK-MEL-5 melanoma
[16] = tested on: SW-620 colon
[17] = tested on: U251 CNS
[18] = tested on: SR leukemia

Row | SMILES | TGI [1] | TGI [2] | TGI [3] | TGI [4] | TGI [5] | TGI [6] | TGI [7] | TGI [8] | TGI [9] | TGI [10] | TGI [11] | TGI [12] | TGI [13] | TGI [14] | TGI [15] | TGI [16] | TGI [17] | TGI [18]
1 | CC(=O)O[C@H]1C[C@](C)(O)[C@@]23CC([C@@H](OC(=O)C(C)(C)O)[C@@H](OC(C)=O)C2(COC(=O)c2ccccc2)[C@H]1OC(C)=O)C(C)(C)O3 (stereo partly drawn) | > 100 µM | > 100 µM | > 100 µM | > 100 µM | > 100 µM | > 100 µM | > 100 µM | > 100 µM | > 100 µM | > 100 µM | > 100 µM | > 100 µM | > 100 µM | > 100 µM | > 100 µM | > 100 µM | > 100 µM | 
2 | Cc1ccc(NC(=O)/C(=N/NC(=O)C[N+](C)(C)C)c2nc3ccccc3[nH]c2=O)cc1 | > 100 µM | > 100 µM |  | > 100 µM |  |  | > 100 µM |  |  | > 100 µM |  | > 100 µM | > 100 µM | > 100 µM | > 100 µM | 33.8 µM | 85.3 µM | > 100 µM
3 | CC(=O)OCCOCNC(=S)N/N=C(\C)c1cccs1 | > 100 µM | > 100 µM |  | > 100 µM | > 100 µM | > 100 µM | > 100 µM |  |  | > 100 µM |  | > 100 µM | > 100 µM | > 100 µM | > 100 µM | > 100 µM | > 100 µM | > 100 µM
4 | C[N+](C)(C)CC(=O)N/N=C(/Cc1nc2ccc([N+](=O)[O-])cc2[nH]c1=O)C(=O)Nc1cc(C(F)(F)F)ccc1Cl | > 100 µM | > 100 µM |  | > 100 µM | > 100 µM | > 100 µM | > 100 µM |  |  | > 100 µM |  | > 100 µM | > 100 µM | > 100 µM | > 100 µM | > 100 µM |  | > 100 µM
5 | COc1cc2c(c(OC)c1OC)-c1ccc(SC)c(=O)cc1[C@@H](NCc1cccc([N+](=O)[O-])c1)CC2 | 34.4 µM | > 100 µM |  | < 0.01 µM | 2.39 µM | 0.0754 µM | 13.1 µM |  |  | < 0.01 µM |  | 28 µM | > 100 µM |  |  | > 100 µM | < 0.01 µM | > 100 µM
6 | CCOC(OCC)C(CC)[Se]c1ccccc1 (stereo not drawn) | > 100 µM | > 100 µM |  | > 100 µM | > 100 µM | > 100 µM | 93.7 µM |  |  | > 100 µM |  | > 100 µM | > 100 µM | > 100 µM | > 100 µM |  | > 100 µM | 47.7 µM
7 | COc1cc2c(c(OC)c1OC)-c1ccc(SC)c(=O)cc1[C@@H](NC(=O)c1ccc([N+](=O)[O-])cc1)CC2 | 15.6 µM and 30.7 µM | 25 µM and > 100 µM |  | 0.0151 µM | 25 µM and > 100 µM |  |  |  |  | 0.00595 µM |  | 25 µM and > 100 µM | 0.00721 µM | > 100 µM | 3.79 µM and 1.59 µM | 25 µM and > 100 µM |  | 25 µM and > 100 µM
8 | O=S(c1ccc(Cl)cc1)c1ccccc1C1=NCCN1 (stereo not drawn) | > 100 µM | > 100 µM | > 100 µM | > 100 µM | > 100 µM | > 100 µM | > 100 µM | > 100 µM | > 100 µM | > 100 µM | > 100 µM | > 100 µM | > 100 µM | > 100 µM | > 100 µM | > 100 µM | > 100 µM | 
9 | O=C(CC(c1ccccc1)C(C(=O)c1ccncc1)C(CC(=O)c1ccncc1)c1ccccc1)c1ccncc1 (stereo not drawn) | > 100 µM | > 100 µM | > 100 µM | > 100 µM |  | > 100 µM | > 100 µM | > 100 µM |  | > 100 µM | > 100 µM | > 100 µM | 70.3 µM | > 100 µM |  | > 100 µM | > 100 µM | > 100 µM
10 | Cn1cnc(SC2=C3C(=O)C=C4S[C@H]5C[C@]42c2c(c(O)c4c6c2=[N+]3CCC=6C=N4)N5)c1CC(N)C(=O)O (stereo partly drawn) | 59.7 µM | 56.7 µM |  | 29.8 µM | 41.3 µM | 37.8 µM | 29.1 µM |  |  | 14.6 µM |  | 25.1 µM | 29.4 µM | 31.9 µM | 26.4 µM | 18.5 µM | 31.3 µM | 48.8 µM
11 | Cn1nc2ccc3nccc(NCCNCCO)c3c2n1 | > 100 µM | > 100 µM |  | > 100 µM | > 100 µM | > 100 µM | > 100 µM |  |  | > 100 µM |  | > 100 µM | > 100 µM | > 100 µM | > 100 µM | > 100 µM | > 100 µM | > 100 µM
12 | COc1cc(C(O)C(=O)c2cnc3cc([N+](=O)[O-])ccc3n2)ccc1O (stereo not drawn) | > 100 µM | > 100 µM |  | > 100 µM | > 100 µM | > 100 µM | > 100 µM |  |  |  |  |  | > 100 µM |  | > 100 µM | > 100 µM | > 100 µM | > 100 µM
13 | N#Cc1ccc2[nH]c3c(c2c1)CC(=O)Nc1ccccc1-3 | > 100 µM | > 100 µM |  | > 100 µM | > 100 µM |  | > 100 µM | > 100 µM |  | > 100 µM | > 100 µM | > 100 µM | > 100 µM | > 100 µM | > 100 µM | > 100 µM | > 100 µM | > 100 µM
14 | COc1cccc([C@@H]2CC(=O)c3cc4c(cc3N2)OCO4)c1 | > 100 µM | > 100 µM | > 100 µM | > 100 µM | > 100 µM | > 100 µM | > 100 µM | > 100 µM | > 100 µM | > 100 µM | > 100 µM | > 100 µM | > 100 µM | > 100 µM | > 100 µM | > 100 µM | > 100 µM | 
15 | N#CCc1nc2cc(C(F)(F)F)ccc2s1 | > 100 µM |  | > 100 µM |  |  | > 100 µM |  | > 100 µM | > 100 µM | 75.8 µM |  | > 100 µM | > 100 µM |  | > 100 µM | > 100 µM | > 100 µM | 
16 | COc1ccc(CCCN2c3ccccc3Sc3ccccc32)cc1 | > 100 µM | > 100 µM |  | > 100 µM | > 100 µM | > 100 µM | > 100 µM |  |  |  |  | > 100 µM | > 100 µM | > 100 µM | > 100 µM | > 100 µM | > 100 µM | 
